Reference: ChEMBL document CHEMBL1201862, “PubChem BioAssay data set” (2004)
Active and inactive are the calls of the source.

How the values were obtained:
[1] = blockers of HIV-1 ZM109 envelope-driven cell-cell fusion – HeLa effector, CEM target cells, luciferase, cherry-pick, dose response (AID 652058); type: functional, cell-based;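 further: luciferase signal from HIV-1 Env mediated cell-cell fusion of effector and target cells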
[2] = HIV-1 AD8 envelope cell-cell fusion blockers – cherry-pick, dose response (AID 652062); type: functional, cell-based;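 further: luciferase signal from cell-cell fusion driven by HIV-1 clade B AD8 Env; potency is for inhibitors of fusion seen as a drop in luminescence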
[3] = off-target signal loss in HeLa-CEM21 co-culture – HeLa F-luc CTL cells, cherry-picked, counter-screen for HIV-1 Env fusion inhibitor project, dose response (AID 652040); type: functional, cell-based;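 further: potency for signal decrease marking cytotoxic or nonspecific inhibition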
[4] = blockers of HIV-1 envelope-mediated cell-cell fusion – cherry-pick, dose response (AID 652057); type: functional, cell-based
[5] = biological target: Peroxisome proliferator-activated receptor gamma/Nuclear receptor coactivator 2 (Homo sapiens, UniProt P37231); assay: (§1) TR-FRET dose response biochemical High Throughput Screening assay for agonists of the steroid receptor coactivator 2 (SRC-2) recruitment by the peroxisome proliferator-activated receptor gamma (PPAR gamma): non-selective agonists. [Related pubchem assays: 1297, 1032 ]; type: functional
[6] = biological target: Peroxisome proliferator-activated receptor gamma/Nuclear receptor coactivator 3 (Homo sapiens, UniProt P37231); assay: as §1, with “3 (SRC-3)” for “2 (SRC-2)”, “1301 (Confirmation screen.), 1048 (Primary screen.)]” for “1297, 1032 ]”; type: functional
[7] = biological target: Peroxisome proliferator-activated receptor gamma/Nuclear receptor coactivator 1 (Homo sapiens, UniProt P37231); assay: as §1, with “1 (SRC-1)” for “2 (SRC-2)”, “assays (depositor defined):AID1300, AID1808, AID504735, AID631]” for “assays: 1297, 1032 ]”; type: protein assay
cells [8] = type: functional, cell-based
[9] = biological target: T1, Microphthalmia-associated transcription factor (Homo sapiens, UniProt O75030); assay: reducers of TRPM1 reporter luminescence, concentration series – cell-based, SK-MEL-5, cherry-picked, set 3, MITF inhibitor project, dose response (AID 493073); type: functional;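 further: SK-MEL-5 melanoma cells with luciferase driven by the MITF target TRPM1 promoter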
T1 sequence (O75030 whole entry): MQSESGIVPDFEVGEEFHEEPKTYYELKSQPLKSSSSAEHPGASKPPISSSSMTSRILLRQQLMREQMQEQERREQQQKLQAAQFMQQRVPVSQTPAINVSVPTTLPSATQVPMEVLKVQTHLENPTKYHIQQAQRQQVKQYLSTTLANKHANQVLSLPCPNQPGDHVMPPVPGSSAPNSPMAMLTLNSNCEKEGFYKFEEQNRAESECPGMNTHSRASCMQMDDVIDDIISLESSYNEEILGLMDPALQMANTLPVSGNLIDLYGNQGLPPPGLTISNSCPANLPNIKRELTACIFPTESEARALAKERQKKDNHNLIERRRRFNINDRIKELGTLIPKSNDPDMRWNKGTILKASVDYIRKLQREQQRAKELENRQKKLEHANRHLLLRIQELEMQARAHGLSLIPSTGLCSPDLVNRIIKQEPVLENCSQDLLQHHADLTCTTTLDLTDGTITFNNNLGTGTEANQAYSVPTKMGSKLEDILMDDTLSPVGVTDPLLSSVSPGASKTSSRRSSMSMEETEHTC

[10] = non-specific 3'UTR reporter inhibition in Clone20-Shn3RL – cell-based, Renilla luciferase, cherry-picked, counter-screen for Shn3 inhibitor project, dose response (AID 624133); type: functional
[11] = reduction of Shn3 3'UTR-driven luciferase in osteoblasts – cell-based, Clone20 osteoblasts, firefly luciferase, cherry-picked, dose response (AID 624132); type: functional;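 further: firefly luciferase luminescence from reporter carrying the Shn3 3'UTR in osteoblasts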
[12] = general cell-killing toxicity readout – plate reader, dry powder samples, cytotoxicity control for PAX8 inhibitor project, dose response (AID 743021); type: functional, cell-based
cells [13] = type: functional, cell-based; remark: listed apart in the source
INS1 = assay: INS-1E survival protection against cytokine death – cell-based, luminescence, retest, dose response (AID 449756); type: functional; details: Rattus norvegicus;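 further: cell death triggered by IL-1 beta plus TNF-alpha plus IFN-gamma mixture; protective hits raise ATP signal compared with cytokine alone wells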
Paired box protein Pax-8 = Paired box protein Pax-8 (Homo sapiens, UniProt Q06710); assay: PAX8 transcriptional activity inhibition in RMG-I – RMG-I cells, luciferase, cherry-pick, dose response (AID 687027); type: functional, cell-based;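 further: luciferase reporter driven by Pax8 target thyroperoxidase promoter measured by SteadyGlo luminescence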
[14] = loss of viability in HepG2 cells – cell-based, CellTiter-Glo, cherry-picked, cytotoxicity control for Shn3 inhibitor project, dose response (AID 624134); type: functional
[15] = biological target: T2, Corticotropin-releasing factor receptor 2/Corticotropin-releasing factor-binding protein (Homo sapiens, UniProt P24387+Q13324); assay: activators of CRF receptor 2 with binding protein – uHTS hits, confirmation (AID 602473); type: functional; details: read-out: EC50_Mean
T2 sequence (Q13324 whole entry): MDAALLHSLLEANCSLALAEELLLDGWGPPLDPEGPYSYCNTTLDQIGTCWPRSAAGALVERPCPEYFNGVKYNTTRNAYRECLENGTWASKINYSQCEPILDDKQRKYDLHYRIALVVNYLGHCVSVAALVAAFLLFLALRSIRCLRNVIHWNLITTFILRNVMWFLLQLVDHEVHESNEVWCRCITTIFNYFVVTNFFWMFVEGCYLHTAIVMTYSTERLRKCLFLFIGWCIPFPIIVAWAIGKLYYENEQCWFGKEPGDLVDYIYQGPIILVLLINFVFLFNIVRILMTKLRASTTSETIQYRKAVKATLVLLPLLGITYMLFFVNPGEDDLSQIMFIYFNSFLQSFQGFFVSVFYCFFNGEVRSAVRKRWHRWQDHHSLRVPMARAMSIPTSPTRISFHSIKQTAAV
T2 sequence (P24387 whole entry): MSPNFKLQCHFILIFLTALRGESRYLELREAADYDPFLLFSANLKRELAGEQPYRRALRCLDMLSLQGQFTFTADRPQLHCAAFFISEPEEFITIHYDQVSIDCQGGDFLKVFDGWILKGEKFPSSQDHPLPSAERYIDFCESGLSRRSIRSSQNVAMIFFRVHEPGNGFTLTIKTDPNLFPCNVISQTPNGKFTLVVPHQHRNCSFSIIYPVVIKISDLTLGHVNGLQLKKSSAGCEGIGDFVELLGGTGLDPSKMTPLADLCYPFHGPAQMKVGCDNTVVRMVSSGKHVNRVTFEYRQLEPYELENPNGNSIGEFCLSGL

[16] = biological target: T2, Corticotropin-releasing factor receptor 2/Corticotropin-releasing factor-binding protein; assay: Dose Response confirmation of uHTS hits for small molecule antagonists of the CRF-binding protein and CRF-R2 receptor complex.; type: functional; details: read-out: IC50_Mean
[17] = blockers of CRF-binding protein–CRF-R2 complex – cell-based, uHTS hits, 384-well, dose response (AID 651639); type: functional, Homo sapiens; details: read-out: IC50_Mean
[18] = biological target: Heat shock protein HSP 90-alpha (Homo sapiens, UniProt P07900); type: functional, organism-based
[19] = Luminescence Cell-Based Dose Retest to Confirm Inhibitors of Cancer Stem Cells. [Related pubchem assays (depositor defined):AID2717, AID2721]; type: functional; details: Homo sapiens
[20] = biological target: Luciferin 4-monooxygenase (Photinus pyralis, UniProt P08659); assay: inhibition of purified Photinus pyralis luciferase – biochemical, luminescence, dose response (AID 1891)
[21] = Luminescence Cell-Based Dose Confirmation HTS to Identify Inhibitors of Platelet Dense Granule Release. [Related pubchem assays: 1663 (Primary HTS), 1678 (Summary of Project)]; type: functional

Paired box protein Pax-8, sequence (Q06710 whole entry): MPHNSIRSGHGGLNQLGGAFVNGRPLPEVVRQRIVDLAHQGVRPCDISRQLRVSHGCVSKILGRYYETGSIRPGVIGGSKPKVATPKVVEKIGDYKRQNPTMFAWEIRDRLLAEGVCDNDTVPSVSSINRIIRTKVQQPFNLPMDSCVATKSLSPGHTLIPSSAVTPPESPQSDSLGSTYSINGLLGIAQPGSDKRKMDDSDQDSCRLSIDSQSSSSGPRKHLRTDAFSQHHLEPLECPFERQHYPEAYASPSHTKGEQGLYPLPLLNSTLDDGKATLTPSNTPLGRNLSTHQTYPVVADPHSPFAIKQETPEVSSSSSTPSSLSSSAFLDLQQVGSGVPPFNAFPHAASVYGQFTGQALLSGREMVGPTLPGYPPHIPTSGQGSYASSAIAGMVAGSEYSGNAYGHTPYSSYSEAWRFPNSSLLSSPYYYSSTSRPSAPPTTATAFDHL
Peroxisome proliferator-activated receptor gamma/Nuclear receptor coactivator 3, sequence (P37231 whole entry): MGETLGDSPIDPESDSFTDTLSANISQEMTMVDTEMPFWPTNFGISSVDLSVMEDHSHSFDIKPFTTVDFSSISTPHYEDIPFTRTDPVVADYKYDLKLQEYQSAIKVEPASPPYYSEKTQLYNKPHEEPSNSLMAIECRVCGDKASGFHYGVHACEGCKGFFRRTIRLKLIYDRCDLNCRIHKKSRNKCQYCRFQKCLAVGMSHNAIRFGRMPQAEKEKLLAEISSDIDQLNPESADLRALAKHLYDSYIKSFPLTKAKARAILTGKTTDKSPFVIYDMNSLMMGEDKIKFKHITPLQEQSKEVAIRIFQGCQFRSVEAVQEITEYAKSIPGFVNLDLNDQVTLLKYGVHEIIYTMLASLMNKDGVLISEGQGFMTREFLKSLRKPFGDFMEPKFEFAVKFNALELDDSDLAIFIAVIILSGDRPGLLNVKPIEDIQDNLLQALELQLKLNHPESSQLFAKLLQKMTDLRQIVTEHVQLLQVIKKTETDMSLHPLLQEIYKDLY
Peroxisome proliferator-activated receptor gamma/Nuclear receptor coactivator 3, sequence (Q9Y6Q9 whole entry, further chain): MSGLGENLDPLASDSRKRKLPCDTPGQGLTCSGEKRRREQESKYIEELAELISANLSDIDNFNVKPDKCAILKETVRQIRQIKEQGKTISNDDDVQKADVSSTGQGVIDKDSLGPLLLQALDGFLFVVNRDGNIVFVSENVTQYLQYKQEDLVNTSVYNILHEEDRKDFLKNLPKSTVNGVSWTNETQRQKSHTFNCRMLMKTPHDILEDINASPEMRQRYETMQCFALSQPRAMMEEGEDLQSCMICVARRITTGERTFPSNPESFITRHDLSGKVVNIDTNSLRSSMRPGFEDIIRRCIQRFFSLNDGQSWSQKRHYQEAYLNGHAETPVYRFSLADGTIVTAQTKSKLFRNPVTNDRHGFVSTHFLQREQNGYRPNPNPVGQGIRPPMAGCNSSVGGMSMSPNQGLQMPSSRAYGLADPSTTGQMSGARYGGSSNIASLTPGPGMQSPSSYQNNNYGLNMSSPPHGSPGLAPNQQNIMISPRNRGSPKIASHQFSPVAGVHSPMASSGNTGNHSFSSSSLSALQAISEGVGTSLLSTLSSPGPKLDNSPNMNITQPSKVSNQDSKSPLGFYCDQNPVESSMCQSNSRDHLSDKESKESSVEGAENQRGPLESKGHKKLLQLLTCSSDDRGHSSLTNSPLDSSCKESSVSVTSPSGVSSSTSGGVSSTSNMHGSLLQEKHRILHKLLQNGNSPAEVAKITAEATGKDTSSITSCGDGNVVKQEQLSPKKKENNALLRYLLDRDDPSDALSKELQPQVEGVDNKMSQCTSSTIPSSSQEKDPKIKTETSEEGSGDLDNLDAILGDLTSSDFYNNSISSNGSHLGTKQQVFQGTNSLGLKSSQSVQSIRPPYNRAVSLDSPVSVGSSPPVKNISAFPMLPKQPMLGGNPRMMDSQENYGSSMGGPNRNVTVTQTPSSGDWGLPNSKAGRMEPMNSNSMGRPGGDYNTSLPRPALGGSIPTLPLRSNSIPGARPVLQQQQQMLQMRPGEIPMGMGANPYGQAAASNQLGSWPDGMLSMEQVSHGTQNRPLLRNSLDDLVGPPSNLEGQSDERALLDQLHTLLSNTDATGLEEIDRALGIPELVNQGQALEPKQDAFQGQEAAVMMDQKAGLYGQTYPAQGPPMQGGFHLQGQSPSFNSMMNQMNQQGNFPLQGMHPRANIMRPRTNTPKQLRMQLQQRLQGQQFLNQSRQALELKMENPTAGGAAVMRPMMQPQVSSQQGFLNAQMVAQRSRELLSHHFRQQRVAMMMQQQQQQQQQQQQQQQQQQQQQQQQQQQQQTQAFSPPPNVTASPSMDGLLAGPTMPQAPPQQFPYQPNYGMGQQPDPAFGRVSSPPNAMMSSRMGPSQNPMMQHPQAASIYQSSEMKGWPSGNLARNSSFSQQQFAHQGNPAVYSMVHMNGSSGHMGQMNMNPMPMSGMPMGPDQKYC
Peroxisome proliferator-activated receptor gamma/Nuclear receptor coactivator 2, sequence (P37231 whole entry): as the sequence (P37231 whole entry) above
Peroxisome proliferator-activated receptor gamma/Nuclear receptor coactivator 2, sequence (Q15596 whole entry, further chain): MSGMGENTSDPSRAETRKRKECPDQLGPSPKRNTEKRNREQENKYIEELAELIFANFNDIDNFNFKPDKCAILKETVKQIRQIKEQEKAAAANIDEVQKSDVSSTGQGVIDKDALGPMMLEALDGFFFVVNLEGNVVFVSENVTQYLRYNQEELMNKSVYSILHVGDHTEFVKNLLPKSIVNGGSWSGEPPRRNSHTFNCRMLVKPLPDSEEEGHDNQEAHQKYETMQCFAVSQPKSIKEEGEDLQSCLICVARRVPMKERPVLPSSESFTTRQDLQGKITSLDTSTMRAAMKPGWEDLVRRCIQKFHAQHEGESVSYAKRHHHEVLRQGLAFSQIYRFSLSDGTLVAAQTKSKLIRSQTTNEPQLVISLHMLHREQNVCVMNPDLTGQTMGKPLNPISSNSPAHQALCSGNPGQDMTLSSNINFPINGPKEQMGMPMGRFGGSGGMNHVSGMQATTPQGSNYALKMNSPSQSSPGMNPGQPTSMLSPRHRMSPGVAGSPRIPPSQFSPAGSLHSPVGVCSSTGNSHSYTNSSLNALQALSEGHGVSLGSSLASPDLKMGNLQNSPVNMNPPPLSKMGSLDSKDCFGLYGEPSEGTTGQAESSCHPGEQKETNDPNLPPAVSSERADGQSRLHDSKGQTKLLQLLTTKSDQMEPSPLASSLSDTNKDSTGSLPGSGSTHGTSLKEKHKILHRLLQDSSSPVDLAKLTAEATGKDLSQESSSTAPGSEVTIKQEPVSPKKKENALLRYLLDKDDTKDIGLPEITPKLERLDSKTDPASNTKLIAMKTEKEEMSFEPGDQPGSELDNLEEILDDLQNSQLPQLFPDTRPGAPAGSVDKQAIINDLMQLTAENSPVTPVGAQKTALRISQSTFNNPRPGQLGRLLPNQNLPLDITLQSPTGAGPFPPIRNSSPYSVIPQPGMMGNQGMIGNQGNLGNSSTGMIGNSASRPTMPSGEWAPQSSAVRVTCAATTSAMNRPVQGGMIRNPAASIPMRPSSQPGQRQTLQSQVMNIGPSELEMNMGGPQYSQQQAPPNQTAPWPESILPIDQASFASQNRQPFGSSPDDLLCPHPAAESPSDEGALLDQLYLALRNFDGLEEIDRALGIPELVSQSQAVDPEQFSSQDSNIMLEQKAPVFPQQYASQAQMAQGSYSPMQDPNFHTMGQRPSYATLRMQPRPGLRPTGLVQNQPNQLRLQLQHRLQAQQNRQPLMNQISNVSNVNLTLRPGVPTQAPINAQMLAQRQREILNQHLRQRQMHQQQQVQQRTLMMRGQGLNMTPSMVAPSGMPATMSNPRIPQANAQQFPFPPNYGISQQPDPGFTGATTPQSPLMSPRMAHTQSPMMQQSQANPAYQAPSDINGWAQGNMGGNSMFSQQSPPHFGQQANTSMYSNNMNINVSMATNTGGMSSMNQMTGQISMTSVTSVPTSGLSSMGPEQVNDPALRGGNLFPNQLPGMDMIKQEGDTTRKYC
Luciferin 4-monooxygenase, sequence (P08659 whole entry): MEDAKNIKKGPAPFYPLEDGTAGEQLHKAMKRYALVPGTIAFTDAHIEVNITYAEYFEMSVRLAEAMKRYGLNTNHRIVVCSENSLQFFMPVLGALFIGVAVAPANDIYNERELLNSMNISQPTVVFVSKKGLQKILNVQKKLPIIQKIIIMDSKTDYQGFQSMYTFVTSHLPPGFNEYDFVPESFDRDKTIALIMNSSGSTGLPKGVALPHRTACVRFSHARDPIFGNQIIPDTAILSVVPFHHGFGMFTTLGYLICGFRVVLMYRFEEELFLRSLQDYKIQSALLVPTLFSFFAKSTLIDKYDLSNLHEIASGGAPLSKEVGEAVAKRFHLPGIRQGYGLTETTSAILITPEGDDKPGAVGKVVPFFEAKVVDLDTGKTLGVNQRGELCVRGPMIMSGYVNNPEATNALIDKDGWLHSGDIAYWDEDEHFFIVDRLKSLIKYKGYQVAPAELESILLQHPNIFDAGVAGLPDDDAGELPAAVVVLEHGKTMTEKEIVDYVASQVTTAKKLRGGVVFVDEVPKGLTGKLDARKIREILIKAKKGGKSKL

## CC(=O)C1=C(C)N(Cc2ccc(Br)cc2)C(=S)NC1c1cccc(Cl)c1 (centres undefined)
[1]
  AC50: 6.83 µM (active)
[2]
  AC50: 28.4 µM (active)
[3]
  AC50: 10 µM (active)
[4]
  AC50: 4.14 µM (active)

## COc1ccccc1C1CC(c2ccccc2)=NN1C(S)=Nc1ccccc1 (centres undefined)
[5]
  EC50: 10.6 µM (not active)
[6]
  EC50: 80.4 µM (not active)
[7]
  EC50: 9.45 µM (active)

## C[C@H](CO)N1C[C@H](C)[C@H](CN(C)S(=O)(=O)c2ccccc2)Oc2ccc(NC(=O)Nc3ccccc3)cc2CC1=O
[1]
  AC50: 0.414 µM (active)
[2]
  AC50: 3 µM (active)
[4]
  AC50: < 0.26 µM (active)

## COc1ccccc1NC(=O)c1nc(S(=O)(=O)Cc2ccccc2)ncc1Cl
Cells [8]
  EC50: > 350 µM (not active)
[9]
  AC50: 8.91 µM (active)
[10]
  AC50: 6.58 µM (active)
[11]
  AC50: 0.492 µM (active)
[12]
  AC50: 21.1 µM (active)
Cells [13]
  EC50: 5 µM (active)
INS1
  AC50: 6.44 µM (active)
Paired box protein Pax-8
  AC50: 8.83 µM (active)
[14]
  AC50: 14.2 µM (active)

## CCn1nc(C)c(NC(=O)Nc2cccc(Cl)c2Cl)c1C
[15]
  EC50: > 53 µM (inactive)
[16]
  IC50: 36.7 µM (active)
[17]
  IC50: 11 µM (active)

## COc1ccccc1OCC(=O)Nc1nnc(-c2ccco2)s1
[5]
  EC50: 32.1 µM (not active)
[6]
  EC50: > 79.4 µM (not active)
[7]
  EC50: 42.4 µM (inactive)

## Cc1ccc(S(=O)(=O)Nc2ccc3cc([N+](=O)[O-])ccc3c2[N+](=O)[O-])cc1
[18]
  AC50: 14.9 µM (active)
[15]
  EC50: > 53 µM (inactive)
[16]
  IC50: 6.45 µM (active)
[17]
  IC50: 15 µM (active)

## CCCCCCOc1ccc(OC(=O)c2ccncc2)cc1
[1]
  AC50: 44.6 µM (active)
[3]
  AC50: 5.4 µM (active)
[19]
  AC50: 3.67 µM (active)
[4]
  AC50: 4.71 µM (active)

## COc1ccc(N(CC(=O)NCCSCc2ccc(Cl)cc2)S(C)(=O)=O)cc1Cl
[1]
  AC50: 4.11 µM (active)
[2]
  AC50: 6.47 µM (active)
[3]
  AC50: 5.7 µM (active)
[4]
  AC50: 2.9 µM (active)

## CCOc1ccc(C(=O)O/N=C(\N)c2ccccn2)cc1
[20]
  EC50: 0.847 µM (active)
[21]
  EC50: 0.499 µM (active)
[12]
  AC50: 34.9 µM (active)
Paired box protein Pax-8
  AC50: 7.43 µM (active)

## Cc1ccc(SCc2noc(-c3c(C)noc3C)n2)cc1
[15]
  EC50: > 53 µM (inactive)
[16]
  IC50: < 0.368 µM (active)
[17]
  IC50: > 20 µM (inactive)
